From US11357777B2, “Use of sGC stimulators for the treatment of nonalcoholic steatohepatitis (NASH)” (Cyclerion Therapeutics, Inc., priority 2016, dated 2022) come the findings set out here.

The nature of this series: Distribution of sGC stimulators in tissues, rats (liver and plasma by LC-MS/MS). It is filed as in vivo. To be noted: Wistar, rat, 2 h post fifth dose, male rats, read-out: total Liver:Plasma ratio. How it is done: The purpose of this experiment was to determine compound concentrations in the plasma and tissues of animals dosed with sGC stimulators for 5 days Q.D.
In a first experiment, the sGC stimulator Compound B (described previously in Example 2) was dosed for 5 Days Q.D. to male Wister rats. Rats were divided into four study groups and dosed according to the below table:
The animals were dosed daily for five consecutive days according the table above. On each day of dosing, frozen aliquots of each dosing solution were thawed and the animals were weighed and dosed accordingly. On day 5, two hours post the fifth dose, blood was collected by orbital bleed. Blood samples were collected in EDTA tubes pre-loaded with 5 μL of 100 mM IBMX Plasma was be separated by centrifugation for 10 minutes at 4° C. and then stored at −80° C.
A Ketamine/Xylazine/pbs solution as a 5:1:4 ratio was administered I.P. at 1 ul per gram. Once the rat was fully anesthetized (as determined by checking its reflexes) and while the heart was still beating, a needle was inserted into the left ventricle. Approximately 20 mls of PBS/IBMX/heparin solution were then perfused. The right atrium was snipped, and perfusion continued for approximately 10 additional mls (30 mls total). At this point, the femoral artery was snipped and perfusion was continued until there was no longer blood (only clear fluid) collecting in the abdominal cavity. Several tissues, including liver, were isolated and weighed followed by snap freezing.
A second separate and similar experiment was carried out with Compound C. The structure of Compound C is depicted below. The preparation and characterization of this compound was described in patent application publication WO2014144100, published 18 Sep. 2014.
For this second experiment, rats were divided into four study groups and dosed according to the below table:
Samples were analyzed using liquid chromatography (LC) with tandem mass spectrometric detection (MS/MS) using positive electrospray ionization. The standard curve range was from 0.1 to 400 ng/mL. […]
In order to prepare the tissues for measurement, the naïve livers and the livers isolated after treatment were removed from the −80° C. freezer and placed on liquid nitrogen. The liver weight was recorded and then the tissue placed in a Geno grinding vial containing two 7/16″ steel beads. […] Approximately 200 mg of tissue from each sample was weighed and recorded. […] The samples were analyzed by LC-MS/MS.
Total liver and plasma concentrations were measured and liver concentrations were corrected for total liver weight. Liver: Plasma ratios were determined by dividing liver compound concentration by the plasma compound concentration. […]

Each structure is given as a SMILES string. Read-outs that look alike come from different tables or passages of the source.

In the case of `OC(CNc1nc(-c2cc(-c3ccon3)n(Cc3ccccc3F)n2)ncc1F)(C(F)(F)F)C(F)(F)F` [Compound B], the Kp was found to be 19 (1 mg/kg PO Q.D. 5 days) and 20 (10 mg/kg PO Q.D. 5 days).
